Bounds are passed on as bounds.

In this assay the test system is beta-TC6 cells. Nature of the assay: Insulin HTRF assay (relative activity Ar) in beta-TC6 cells. The class given is cell-based, mouse. To be noted: Mus musculus, Beta-TC6, 4 h, insulin HTRF, supernatant of beta-TC6 cells, incubation with test compound at 37°C for 2, 3, 4h; read-out: Ar (relative activity). The procedure, abridged: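 beta-TC6 cells (15k/well, seeded 24 or 48 h) washed, then exposed to compound in induction buffer (0.5% DMSO final) for 2, 3 or 4 h at 37°C.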
As for `COc1ccc(Nc2cc3c(cn2)cc(-c2cccc(N(C)C(C)=O)c2)n3C)cn1` [Compound 161, N-[3-[6-[(6-methoxy-3-pyridyl)amino]-1-methyl-pyrrolo[3,2-c]pyridin-2-yl]phenyl]-N-methyl-acetamide], the Emax lay within 50 to 100%.
For `COc1cccc(Nc2cc3c(cn2)nc(-c2ccc(OC)c(OC)c2)n3C)c1` [Compound 718, 2-(3,4-dimethoxyphenyl)-N-(3-methoxyphenyl)-1-methyl-imidazo[4,5-c]pyridin-6-amine], the Emax fell in the range of 50 to 100%.
To `CNc1nc2cnc(-c3ccc(N(C)C)cc3)cc2n1-c1cccc(F)c1` [Compound 678, 6-(4-dimethylaminophenyl)-1-(3-fluorophenyl)-N-methyl-imidazo[4,5-c]pyridin-2-amine] belongs more than 100%.
To `Clc1cccc(Nc2nccc3[nH]c(-c4ccncc4)nc23)c1` [Compound 424, N-(3-chlorophenyl)-2-(4-pyridyl)-1H-imidazo[4,5-c]pyridin-4-amine] belongs 30 to 50%; to `Cc1cccc(CNc2nc3cnc(-c4ccc(S(C)(=O)=O)cc4)cc3n2C)c1` [Compound 806, 1-methyl-6-(4-methylsulfonylphenyl)-N-(m-tolylmethyl)imidazo[4,5-c]pyridin-2-amine], 30 to 50%; to `COc1ccc(Nc2cc3c(cn2)nc(Nc2ccccc2)n3C)cc1OC` [Compound 632, N6-(3,4-dimethoxyphenyl)-1-methyl-N2-phenyl-imidazo[4,5-c]pyridine-2,6-diamine], 50 to 100%.
To `CNc1nc2cnc(-c3cccc(C(=O)NCCN(C)C)c3)cc2n1-c1cccc(F)c1` [Compound 771, N-(2-dimethylaminoethyl)-3-[1-(3-fluorophenyl)-2-(methylamino)imidazo[4,5-c]pyridin-6-yl]benzamide] belongs 0 to 30%.
With `CNc1nc2cnc(Nc3cccc(OC)c3)cc2n1-c1ccccc1` [Compound 503, N6-(3-methoxyphenyl)-N2-methyl-1-phenyl-imidazo[4,5-c]pyridine-2,6-diamine], the Emax lay within 50 to 100%.
Turning to `Cn1cc(-c2cc3cnc(N4CCOCC4)cc3n2Cc2ccccc2)cn1` [Compound 155, 4-[1-benzyl-2-(1-methylpyrazol-4-yl)pyrrolo[3,2-c]pyridin-6-yl]morpholine], the Emax was in the range of 50 to 100%.
To `COc1ccc(OC)c(CCNc2nc3cnc(-c4ccc5c(c4)OCO5)cc3n2C)c1` [Compound 816, 6-(1,3-benzodioxol-5-yl)-N-[2-(2,5-dimethoxyphenyl)ethyl]-1-methyl-imidazo[4,5-c]pyridin-2-amine] belongs 0 to 30%.
To `COc1ccc(CNc2nc3cnc(Nc4ccc(C(N)=O)cc4)cc3n2C)cc1OC` [Compound 601, 4-[[2-[(3,4-dimethoxyphenyl)methylamino]-1-methyl-imidazo[4,5-c]pyridin-6-yl]amino]benzamide] belongs 50 to 100%; to `CC(=O)N(C)c1cccc(-c2cc3cnc(Nc4cccc(N(C)C)c4)cc3n2C)c1` [Compound 165, N-[3-[6-[3-(dimethylamino)anilino]-1-methyl-pyrrolo[3,2-c]pyridin-2-yl]phenyl]-N-methyl-acetamide], more than 100%; to `COc1ccc(Nc2cc3[nH]c(-c4ccccn4)cc3cn2)cc1` [Compound 65, N-(4-methoxyphenyl)-2-(2-pyridyl)-1H-pyrrolo[3,2-c]pyridin-6-amine], more than 100%.
To `COc1ccc(Nc2cc3[nH]c(-c4cn[nH]c4)cc3cn2)cc1OC` [Compound 111, N-(3,4-dimethoxyphenyl)-2-(1H-pyrazol-4-yl)-1H-pyrrolo[3,2-c]pyridin-6-amine] belongs more than 100%; to `c1ccc(Nc2cc3[nH]c(-c4cn[nH]c4)cc3cn2)nc1` [Compound 115, 2-(1H-pyrazol-4-yl)-N-(2-pyridyl)-1H-pyrrolo[3,2-c]pyridin-6-amine], more than 100%; to `Cn1c(-c2ccco2)nc2cnc(Nc3ccccc3Cl)cc21` [Compound 710, N-(2-chlorophenyl)-2-(2-furyl)-1-methyl-imidazo[4,5-c]pyridin-6-amine], 30 to 50%.
As for `COc1ccc(-c2nc3c(Nc4ccccc4)nccc3[nH]2)cc1OC` [Compound 342, 2-(3,4-dimethoxyphenyl)-N-phenyl-1H-imidazo[4,5-c]pyridin-4-amine], the Emax fell in the range of 50 to 100%.
To `CNc1nc2cnc(Nc3cccc(N(C)C)c3)cc2n1-c1ccccc1` [Compound 508, N6-[3-(dimethylamino)phenyl]-N2-methyl-1-phenyl-imidazo[4,5-c]pyridine-2,6-diamine] belongs 50 to 100%.
To `Cn1cc(-c2cc3cnc(Nc4ccc5c(c4)OCCO5)cc3[nH]2)cn1` [Compound 122, N-(2,3-dihydro-1,4-benzodioxin-6-yl)-2-(1-methylpyrazol-4-yl)-1H-pyrrolo[3,2-c]pyridin-6-amine] belongs 30 to 50%.
To `CS(=O)(=O)c1ccc(Nc2nccc3[nH]c(-c4ccsc4)cc23)cc1` [Compound 268, N-(4-methylsulfonylphenyl)-2-(3-thienyl)-1H-pyrrolo[3,2-c]pyridin-4-amine] belongs 50 to 100%; to `Cn1cc(-c2cc3cnc(Nc4ccc(C#N)cc4)cc3n2C)cn1` [Compound 142, 4-[[1-methyl-2-(1-methylpyrazol-4-yl)pyrrolo[3,2-c]pyridin-6-yl]amino]benzonitrile], 50 to 100%.
Take `COCCNc1nc2cnc(Nc3cc(OC)c(OC)c(OC)c3)cc2n1C` [Compound 645, N2-(2-methoxyethyl)-1-methyl-N6-(3,4,5-trimethoxyphenyl)imidazo[4,5-c]pyridine-2,6-diamine]: the Emax lay in the range of 30 to 50%.
To `COc1ccc(Nc2nccc3[nH]c(-c4ccsc4)cc23)c(OC)c1` [Compound 251, N-(2,4-dimethoxyphenyl)-2-(3-thienyl)-1H-pyrrolo[3,2-c]pyridin-4-amine] belongs 30 to 50%; to `CNc1nc2cnc(Nc3cc(OC)c(OC)c(OC)c3)cc2n1-c1ccccc1` [Compound 502, N2-methyl-1-phenyl-N6-(3,4,5-trimethoxyphenyl)imidazo[4,5-c]pyridine-2,6-diamine], 50 to 100%; to `CC(=O)Nc1ccc(-c2cc3c(cn2)ncn3-c2cccc(F)c2)cc1` [Compound 761, N-[4-[1-(3-fluorophenyl)imidazo[4,5-c]pyridin-6-yl]phenyl]acetamide], 0 to 30%.
Consider `COc1ccc(Nc2cc3c(cn2)nc(NCc2ccccc2)n3C)cn1` [Compound 618, N2-benzyl-N6-(6-methoxy-3-pyridyl)-1-methyl-imidazo[4,5-c]pyridine-2,6-diamine], for which the Emax lay within 50 to 100%.
`CNc1nc2cnc(Nc3ccc(N4CCOCC4)cc3)cc2n1CC1CC1` [Compound 571, 1-(cyclopropylmethyl)-N2-methyl-N6-(4-morpholinophenyl)imidazo[4,5-c]pyridine-2,6-diamine]: the Emax was in the range of 50 to 100%.
Take `CNC(=O)c1cccc(-c2cc3c(cn2)nc(NCCOC)n3C)c1` [Compound 652, 3-[2-(2-methoxyethylamino)-1-methyl-imidazo[4,5-c]pyridin-6-yl]-N-methyl-benzamide]: the Emax lay in the range of 50 to 100%.
To `Fc1ccc(Nc2nccc3[nH]c(-c4ccccc4Cl)nc23)cc1Cl` [Compound 461, N-(3-chloro-4-fluoro-phenyl)-2-(2-chlorophenyl)-1H-imidazo[4,5-c]pyridin-4-amine] belongs 0 to 30%; to `c1ccc(Cn2cnc3c(NCc4ccco4)nccc32)cc1` [Compound 451, 1-benzyl-N-(2-furylmethyl)imidazo[4,5-c]pyridin-4-amine], 0 to 30%; to `Fc1ccc(C(F)(F)F)cc1Nc1cc2[nH]c(-c3cccnc3)cc2cn1` [Compound 79, N-[2-fluoro-5-(trifluoromethyl)phenyl]-2-(3-pyridyl)-1H-pyrrolo[3,2-c]pyridin-6-amine], 30 to 50%.
To `COCCNc1nc2cnc(Nc3ccc(C(=O)OC)cc3)cc2n1C` [Compound 649, methyl 4-[[2-(2-methoxyethylamino)-1-methyl-imidazo[4,5-c]pyridin-6-yl]amino]benzoate] belongs 50 to 100%; to `CNc1nc2cnc(Nc3ccc(C(N)=O)cc3)cc2n1-c1cccc(F)c1` [Compound 681, 4-[[1-(3-fluorophenyl)-2-(methylamino)imidazo[4,5-c]pyridin-6-yl]amino]benzamide], 50 to 100%; to `COc1ccc(Nc2nccc3[nH]c(-c4ccc(F)c(F)c4)nc23)cc1OC` [Compound 440, 2-(3,4-difluorophenyl)-N-(3,4-dimethoxyphenyl)-1H-imidazo[4,5-c]pyridin-4-amine], 30 to 50%.
To `Cc1cccc(CNc2nc3cnc(-c4ccc(N)nc4)cc3n2C)c1` [Compound 811, 6-(6-amino-3-pyridyl)-1-methyl-N-(m-tolylmethyl)imidazo[4,5-c]pyridin-2-amine] belongs 30 to 50%.
With `c1ccc(-c2cc3c(Nc4cccnc4)nccc3[nH]2)cc1` [Compound 319, 2-phenyl-N-(3-pyridyl)-1H-pyrrolo[3,2-c]pyridin-4-amine], the Emax fell in the range of 50 to 100%.
To `Cn1c(Nc2cccc(C(F)(F)F)c2)nc2cnc(-c3ccc(N)nc3)cc21` [Compound 590, 6-(6-amino-3-pyridyl)-1-methyl-N-[3-(trifluoromethyl)phenyl]imidazo[4,5-c]pyridin-2-amine] belongs 50 to 100%; to `c1cncc(Nc2nccc3[nH]c(-c4ccsc4)cc23)c1` [Compound 255, N-(3-pyridyl)-2-(3-thienyl)-1H-pyrrolo[3,2-c]pyridin-4-amine], 50 to 100%.
To `COc1ccc(Nc2nccc3[nH]c(-c4cccc(F)c4)nc23)cn1` [Compound 405, 2-(3-fluorophenyl)-N-(6-methoxy-3-pyridyl)-1H-imidazo[4,5-c]pyridin-4-amine] belongs 30 to 50%; to `CC(C)Oc1ccc(Nc2cc3[nH]c(-c4cccnc4)cc3cn2)cc1` [Compound 81, N-(4-isopropoxyphenyl)-2-(3-pyridyl)-1H-pyrrolo[3,2-c]pyridin-6-amine], 30 to 50%.
